Results: patent US8933224B2, “Triazine derivatives” (Pfizer Inc., priority 2013, dated 2015)
pIC50: −log10 of the molar value.

Legend:
rat PDE10 enzyme = rat PDE10 enzyme (Rattus norvegicus (Rat), UniProt Q9QYJ6); assay: PDE10 scintillation proximity assay (SPA), inhibition of rat PDE10 enzyme activity; format: biochemical; details: geometric mean of 2-4 determinations unless otherwise indicated (b: ≧5 determinations; c: single determination)
How it was run: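 SPA with fixed recombinant PDE10 (Sf21-expressed, Ni-NTA and Mono Q purified) converting ~20% of 20 nM ³H-cAMP in 50 mM TRIS pH 7.5, 1.3 mM MgCl2, 0.01% Brij, across an inhibitor range.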

[1] = molecular target: human recombinant PDE10 enzyme (PDE10A) (Homo sapiens, UniProt Q9Y233); assay: PDE10 scintillation proximity assay (SPA), inhibition of human recombinant PDE10 enzyme activity; format: biochemical; details: geometric mean of 2-4 determinations unless otherwise indicated (b: ≧5 determinations; c: single determination)
How it was run: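 His6-tagged human PDE10A (aa 21–797) was expressed in insect cells and purified by Ni-NTA and size exclusion. The enzyme, at a level converting about 20% of 20 nM ^3H-cAMP, was incubated 30 min at 25°C in 50 mM Tris pH 7.5, 1.3 mM MgCl2, 0.01% Brij with inhibitors. The reaction was stopped with yttrium silicate SPA beads, read by scintillation, and IC50 determined.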

Sequence of rat PDE10 enzyme (Q9QYJ6 24-794): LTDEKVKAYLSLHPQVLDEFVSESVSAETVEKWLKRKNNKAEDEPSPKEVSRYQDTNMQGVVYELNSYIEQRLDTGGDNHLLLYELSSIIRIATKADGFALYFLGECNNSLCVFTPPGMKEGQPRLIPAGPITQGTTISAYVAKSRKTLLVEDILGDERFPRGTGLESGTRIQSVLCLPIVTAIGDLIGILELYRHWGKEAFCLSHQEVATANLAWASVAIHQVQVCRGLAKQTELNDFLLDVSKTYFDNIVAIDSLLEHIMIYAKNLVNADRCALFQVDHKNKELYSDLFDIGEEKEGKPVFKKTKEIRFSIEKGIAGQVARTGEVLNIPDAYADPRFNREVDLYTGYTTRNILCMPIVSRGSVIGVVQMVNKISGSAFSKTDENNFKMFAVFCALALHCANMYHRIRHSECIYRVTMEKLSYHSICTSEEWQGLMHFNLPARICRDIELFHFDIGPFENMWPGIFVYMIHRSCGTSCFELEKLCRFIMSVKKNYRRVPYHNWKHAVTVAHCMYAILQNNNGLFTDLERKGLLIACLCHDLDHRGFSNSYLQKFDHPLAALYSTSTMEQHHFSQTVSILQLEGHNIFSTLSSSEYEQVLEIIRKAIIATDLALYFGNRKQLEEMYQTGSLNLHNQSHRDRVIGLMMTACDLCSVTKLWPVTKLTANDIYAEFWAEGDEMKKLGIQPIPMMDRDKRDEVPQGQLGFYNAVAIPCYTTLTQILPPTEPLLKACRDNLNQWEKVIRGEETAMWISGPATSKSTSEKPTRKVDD

Cc1nc(-c2ccccc2F)c2c(N3CCc4cnn(C5CC5)c4C3)ncnn12 [Example 156, 4-(1-cyclopropyl-1,4,5,7-tetrahydro-6H-pyrazolo[3,4-c]pyridin-6-yl)-5-(2-fluorophenyl)-7-methylimidazo[5,1-f][1,2,4]triazine]
pIC50 (rat PDE10 enzyme): 9.04
pIC50 [1]: 9.00

Cc1nc([C@@H]2CCOC2)c2c(N3CCc4ccc(C(F)(F)F)nc4C3)ncnn12 [Example 157, 7-{7-methyl-5-[(3S)-tetrahydrofuran-3-yl]imidazo[5,1-f][1,2,4]triazin-4-yl}-2-(trifluoromethyl)-5,6,7,8-tetrahydro-1,7-naphthyridine]
pIC50 (rat PDE10 enzyme): 9.71
pIC50 [1]: 9.53

Cc1nc(-c2ccccc2F)c2c(N3CCc4ccc(C(F)(F)F)nc4C3)ncnn12 [Example 159, 7-[5-(2-fluorophenyl)-7-methylimidazo[5,1-f][1,2,4]triazin-4-yl]-2-(trifluoromethyl)-5,6,7,8-tetrahydro-1,7-naphthyridine]
pIC50 (rat PDE10 enzyme): 8.01
pIC50 [1]: 7.67

Cc1nc([C@@H]2CCOC2)c2c(N3CCc4cc(C5CC5)ncc4C3)ncnn12 [Example 161, 6-cyclopropyl-2-{7-methyl-5-[(3S)-tetrahydrofuran-3-yl]imidazo[5,1-f][1,2,4]triazin-4-yl}-1,2,3,4-tetrahydro-2,7-naphthyridine]
pIC50 (rat PDE10 enzyme): 9.79
pIC50 [1]: 9.33

Cc1nc(-c2ccccc2F)c2c(N3CCc4cc(C5CC5)ncc4C3)ncnn12 [Example 162, 6-cyclopropyl-2-[5-(2-fluorophenyl)-7-methylimidazo[5,1-f][1,2,4]triazin-4-yl]-1,2,3,4-tetrahydro-2,7-naphthyridine]
pIC50 (rat PDE10 enzyme): 8.67
pIC50 [1]: 8.28

Cc1cc2c(cn1)CN(c1ncnn3c(C)nc([C@@H]4CCOC4)c13)CC2 [Example 163, 6-methyl-2-{7-methyl-5-[(3S)-tetrahydrofuran-3-yl]imidazo[5,1-f][1,2,4]triazin-4-yl}-1,2,3,4-tetrahydro-2,7-naphthyridine]
pIC50 (rat PDE10 enzyme): 8.92
pIC50 [1]: 8.75

Cc1cc2c(cn1)CN(c1ncnn3c(C)nc(-c4ccccc4F)c13)CC2 [Example 164, 2-[5-(2-fluorophenyl)-7-methylimidazo[5,1-f][1,2,4]triazin-4-yl]-6-methyl-1,2,3,4-tetrahydro-2,7-naphthyridine]
pIC50 (rat PDE10 enzyme): 8.48
pIC50 [1]: 8.23

CCn1ncc2c1CN(c1ncnn3c(C)nc([C@@H]4CCOC4)c13)CC2 [Example 165, 4-(1-ethyl-1,4,5,7-tetrahydro-6H-pyrazolo[3,4-c]pyridin-6-yl)-7-methyl-5-[(3S)-tetrahydrofuran-3-yl]imidazo[5,1-f][1,2,4]triazine]
pIC50 (rat PDE10 enzyme): 9.12
pIC50 [1]: 8.99

CCn1ncc2c1CN(c1ncnn3c(C)nc(-c4ccccc4F)c13)CC2 [Example 166, 4-(1-ethyl-1,4,5,7-tetrahydro-6H-pyrazolo[3,4-c]pyridin-6-yl)-5-(2-fluorophenyl)-7-methylimidazo[5,1-f][1,2,4]triazine]
pIC50 (rat PDE10 enzyme): 9.36
pIC50 [1]: 9.10

Cc1nc([C@@H]2CCOC2)c2c(N3Cc4c(cnn4C)C(C)C3)ncnn12 (stereo partly drawn) [Example 167, 4-(1,4-dimethyl-1,4,5,7-tetrahydro-6H-pyrazolo[3,4-c]pyridin-6-yl)-7-methyl-5-[(3S)-tetrahydrofuran-3-yl]imidazo[5,1-f][1,2,4]triazine]
pIC50 (rat PDE10 enzyme): 8.35
pIC50 [1]: 8.39

Cc1nc(-c2ccccc2F)c2c(N3Cc4c(cnn4C)C(C)C3)ncnn12 (stereo not drawn) [Example 168]
pIC50 (rat PDE10 enzyme): 8.21
pIC50 [1]: 8.40

Cc1nc([C@@H]2CCOC2)c2c(N3CCc4cnn(CC(C)C)c4C3)ncnn12 [Example 169, 7-methyl-4-[1-(2-methylpropyl)-1,4,5,7-tetrahydro-6H-pyrazolo[3,4-c]pyridin-6-yl]-5-[(3S)-tetrahydrofuran-3-yl]imidazo[5,1-f][1,2,4]triazine]
pIC50 (rat PDE10 enzyme): 9.44
pIC50 [1]: 9.12

Cc1nc([C@@H]2CCOC2)c2c(N3CCc4cnn(CC(F)(F)F)c4C3)ncnn12 [Example 170, 7-methyl-5-[(3S)-tetrahydrofuran-3-yl]-4-[1-(2,2,2-trifluoroethyl)-1,4,5,7-tetrahydro-6H-pyrazolo[3,4-c]pyridin-6-yl]imidazo[5,1-f][1,2,4]triazine]
pIC50 (rat PDE10 enzyme): 8.71
pIC50 [1]: 8.59

Cc1nc([C@@H]2CCOC2)c2c(N3CCc4cnn(CC5CCC5)c4C3)ncnn12 [Example 174, 4-[1-(cyclobutylmethyl)-1,4,5,7-tetrahydro-6H-pyrazolo[3,4-c]pyridin-6-yl]-7-methyl-5-[(3S)-tetrahydrofuran-3-yl]imidazo[5,1-f][1,2,4]triazine]
pIC50 (rat PDE10 enzyme): 9.44
pIC50 [1]: 9.46

Cc1nc(-c2ccccc2F)c2c(N3CCc4cnn(CC5CCC5)c4C3)ncnn12 [Example 175, 4-[1-(cyclobutylmethyl)-1,4,5,7-tetrahydro-6H-pyrazolo[3,4-c]pyridin-6-yl]-5-(2-fluorophenyl)-7-methylimidazo[5,1-f][1,2,4]triazine]
pIC50 (rat PDE10 enzyme): 9.06
pIC50 [1]: 8.71
